Assay results as given in US7790737B2, “Substituted pyrimidine compounds and their utility as CETP inhibitors” (Kowa Company, Ltd., priority 2007, dated 2010).

Biological target: T1, CETP (Homo sapiens, UniProt P11597)
T1 construct: from tissue; host or cells: human plasma
T1 sequence (P11597 18-493): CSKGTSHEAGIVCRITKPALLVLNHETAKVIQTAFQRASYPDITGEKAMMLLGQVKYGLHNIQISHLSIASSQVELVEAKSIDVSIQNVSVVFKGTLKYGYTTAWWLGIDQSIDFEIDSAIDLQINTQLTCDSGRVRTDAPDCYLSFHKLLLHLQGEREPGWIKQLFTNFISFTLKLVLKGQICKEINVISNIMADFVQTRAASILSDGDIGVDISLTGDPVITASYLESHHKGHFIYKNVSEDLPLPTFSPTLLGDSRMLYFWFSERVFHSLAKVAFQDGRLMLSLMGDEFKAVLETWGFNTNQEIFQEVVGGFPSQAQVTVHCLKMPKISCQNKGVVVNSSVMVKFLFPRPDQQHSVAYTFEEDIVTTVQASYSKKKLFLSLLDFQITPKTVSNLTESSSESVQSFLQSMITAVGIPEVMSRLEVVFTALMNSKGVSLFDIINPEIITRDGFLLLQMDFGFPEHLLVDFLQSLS
Assay: Measurement of CETP inhibitory action in human plasma (Roar Biomedical CETP Activity kit, fluorescence)
Format: biochemical
Details: human plasma incubated with compound at 37° C. for 4 hours; calculated from CETP inhibitory rate at two or more concentrations; read-out: IC50 (concentration inhibiting the CETP activity by 50%)
Description: A solution obtained by dissolving an exemplary compound or a comparative compound in polyethylene glycol/N-methyl-2-pyrrolidone (vol/vol=1/1) was added to human plasma, and the mixture was incubated in an incubator at 37° C. for 4 hours. The CETP activity in this plasma was measured with Cholesteryl Ester Transfer Protein Activity kit (Roar Biomedical, catalog No.: RB-CETP). Specifically, to each well of a 96-well plate, 95 μL of a buffer (10 mM Tris, 150 mM NaCl, 2 mM EDTA, pH 7.4), 2 μL of Donor particle and 2 μL of Acceptor particle were added, 1 μL of the human plasma after the incubation was added to the mixture, and the mixture was incubated in an incubator at 37° C. for 2 hours. After completion of the incubation, fluorescence intensity (FLU) was measured with a fluorescence plate reader (excitation wavelength: 465 nm, emission wavelength: 535 nm). In accordance with the following equation 1, the CETP activity (% of control) was obtained for the compounds of the examples and the comparative compounds for two or more concentrations. CETP activity (% of control)=(Sample FLU−Blank FLU)×100/(Control FLU−Blank FLU) (Equation 1) In the equation, the terms have the following meanings: Blank FLU: Fluorescence intensity of sample not added with plasma Control FLU: Fluorescence intensity of plasma not added with solution of compound Sample FLU: Fluorescence intensity of plasma added with solution of compound
A value obtained by subtracting the value of the CETP activity from 100 was defined as the CETP inhibitory rate of each exemplary compound, and a concentration inhibiting the CETP activity by 50% (IC50) was calculated for each exemplary compound from the values of the CETP inhibitory rate at two or more concentrations. As the comparative compound, the following compound was used, which is the pyrimidine compound having a benzyl(heterocyclylmethyl)amine structure described in Example 66 of Patent document 10 (International Patent Publication WO2006/073973).

Row | potency estimated from few doses | SMILES
1 | 500 nM | CCN(CC1CCCC1)c1nc2ccc(OC)cc2cc1CN(c1ncc(OCCS(C)(=O)=O)cn1)C(C)c1cc(C(F)(F)F)cc(C(F)(F)F)c1 (centres unmarked) [Example 9, 3-[({1-[3,5-bis(trifluoromethyl)phenyl]ethyl}{5-[2-(methylsulfonyl)ethoxy]pyrimidin-2-yl}amino)methyl]-N-(cyclopentylmethyl)-N-ethyl-6-methoxyquinolin-2-amine]
2 | 80 nM | CCN(CC1CCCC1)c1nc2ccc(C(F)(F)F)cc2cc1CN(c1ncc(OCCS(C)(=O)=O)cn1)C(C)c1cc(C(F)(F)F)cc(C(F)(F)F)c1 (centres unmarked) [Example 11, 3-[({1-[3,5-bis(trifluoromethyl)phenyl]ethyl}{5-[2-(methylsulfonyl)ethoxy]pyrimidin-2-yl}amino)methyl]-N-(cyclopentylmethyl)-N-ethyl-6-trifluoromethylquinolin-2-amine]
3 | 80 nM | CCN(CC1CCCC1)c1nc2ccc(C)cc2cc1CN(c1ncc(OCCS(C)(=O)=O)cn1)C(C)c1cc(C(F)(F)F)cc(C(F)(F)F)c1 (centres unmarked) [Example 13, 3-[({1-[3,5-bis(trifluoromethyl)phenyl]ethyl}{5-[2-(methylsulfonyl)ethoxy]pyrimidin-2-yl}amino)methyl]-N-(cyclopentylmethyl)-N-ethyl-6-methylquinolin-2-amine]
4 | 200 nM | CCN(CC1CCCC1)c1nc(C)ccc1CN(c1ncc(OCCS(C)(=O)=O)cn1)C(C)c1cc(C(F)(F)F)cc(C(F)(F)F)c1 (centres unmarked) [Example 15, N-{1-[3,5-bis(trifluoromethyl)phenyl]ethyl}-N-({2-[(cyclopentylmethyl)(ethyl)amino]-6-methylpyridin-3-yl}methyl)-5-[2-(methylsulfonyl)ethoxy]pyrimidin-2-amine]
5 | 45 nM | CCc1ccc(CN(c2ncc(OCCS(C)(=O)=O)cn2)C(C)c2cc(C(F)(F)F)cc(C(F)(F)F)c2)c(N(CC)CC2CCCC2)n1 (centres unmarked) [Example 17, N-{1-[3,5-bis(trifluoromethyl)phenyl]ethyl}-N-({2-[(cyclopentylmethyl)(ethyl)amino]-6-ethylpyridin-3-yl}methyl)-5-[2-(methylsulfonyl)ethoxy]pyrimidin-2-amine]
6 | 30 nM | CCN(CC1CCCC1)c1nc(C)c(C)cc1CN(c1ncc(OCCS(C)(=O)=O)cn1)C(C)c1cc(C(F)(F)F)cc(C(F)(F)F)c1 (centres unmarked) [Example 19, N-{1-[3,5-bis(trifluoromethyl)phenyl]ethyl}-N-({2-[(cyclopentylmethyl)(ethyl)amino]-5,6-dimethylpyridin-3-yl}methyl)-5-[2-(methylsulfonyl)ethoxy]pyrimidin-2-amine]
7 | 150 nM | CCN(CC1CCCC1)c1nc2c(cc1CN(c1ncc(OCCS(C)(=O)=O)cn1)C(C)c1cc(C#N)cc(C(F)(F)F)c1)c(C)nn2C (centres unmarked) [Example 23, 3-{1-[({6-[(cyclopentylmethyl)(ethyl)amino]-1,3-dimethyl-1H-pyrazolo[3,4-b]pyridin-5-yl}methyl){5-[2-(methylsulfonyl)ethoxy]pyrimidin-2-yl}amino]ethyl}-5-(trifluoromethyl)benzonitrile]

Further lines, the compound ahead of its results:

Row | SMILES | potency estimated from few doses
8 | CCN(CC1CCCC1)c1nc2ccccc2cc1CN(Cc1cc(C(F)(F)F)cc(C(F)(F)F)c1)c1ncccn1 [Comparative Compound 1, reference compound] | 20000 nM
9 | CCN(CC1CCCC1)c1ccc(OC)nc1CN(c1ncc(OCC[S+](C)[O-])cn1)C(C)c1cc(C(F)(F)F)cc(C(F)(F)F)c1 (centres unmarked) [Example 2, N-{1-[3,5-bis(trifluoromethyl)phenyl]ethyl}-N-({3-[(cyclopentylmethyl)(ethyl)amino]-6-methoxypyridin-2-yl}methyl)-5-[2-(methylsulfinyl)ethoxy]pyrimidin-2-amine] | 150 nM
10 | CCN(CC1CCCC1)c1ccc(OC)nc1CN(c1ncc(OCCS(C)(=O)=O)cn1)C(C)c1cc(C(F)(F)F)cc(C(F)(F)F)c1 (centres unmarked) [Example 3, N-{1-[3,5-bis(trifluoromethyl)phenyl]ethyl}-N-({3-[(cyclopentylmethyl)(ethyl)amino]-6-methoxypyridin-2-yl}methyl)-5-[2-(methylsulfonyl)ethoxy]pyrimidin-2-amine] | 150 nM
11 | CCN(CC1CCCC1)c1nc2c(cc1CN(c1ncc(OCCS(C)(=O)=O)cn1)C(C)c1cc(C(F)(F)F)cc(C(F)(F)F)c1)c(C)nn2C (centres unmarked) [Example 5, 5-[({1-[3,5-bis(trifluoromethyl)phenyl]ethyl}{5-[2-(methylsulfonyl)ethoxy]pyrimidin-2-yl}amino)methyl]-N-(cyclopentylmethyl)-N-ethyl-1,3-dimethyl-1H-pyrazolo[3,4-b]pyridin-6-amine] | 35 nM
12 | CCN(CC1CCCC1)c1nc2ccccc2cc1CN(c1ncc(OCCS(C)(=O)=O)cn1)C(C)c1cc(C(F)(F)F)cc(C(F)(F)F)c1 (centres unmarked) [Example 7, 3-[({1-[3,5-bis(trifluoromethyl)phenyl]ethyl}{5-[2-(methylsulfonyl)ethoxy]pyrimidin-2-yl}amino)methyl]-N-(cyclopentylmethyl)-N-ethylquinolin-2-amine] | 50 nM

Tested on: CETP
Assay: Measurement of CETP inhibitory activity in blood of hamster (single oral administration)
Format: in vivo
Details: hamster plasma, single oral dose 30 mg/kg in olive oil, blood collected 2 hours after administration, n=3; control 33.7 ± 2.3
Description: 1: Labeling of Donor Lipoprotein (HDL3 Fraction) with ^3H-Cholesterol and Preparation of Acceptor Lipoprotein (LDL Fraction)
The donor lipoprotein was prepared by adding KBr to plasma of healthy human subject (50 mL) to adjust the specific gravity (d) of the plasma to be 1.125, centrifuging the mixture at 100,000 rpm and 4° C. for 2.5 hours (Optima Max-E TLA-100.2 rotor, Beckman), and collecting the lower layer (HDL3 fraction, d>1.125). The resulting fraction was dialyzed against PBS (10 mM Na2HPO4, 10 mM NaH2PO4, 0.15 M NaCl, 1 mM EDTA-2Na, pH 7.4). Then, a 95% ethanol solution of 9.25 MBq 1, 2-3H(N)cholesterol (NEN™, Life Science Products, USA) was added to the sample with stirring, and the mixture was incubated at 37° C. for 18 hours. […]
To 10 μL of the hamster plasma, 5 μL of ^3H-labeled HDL3 and […] of LDL were added, and the final volume of the mixture was made 600 μL with a TBS solution (10 mM Tris, 0.15 M NaCl, pH 7.4). […] Then, radioactivity of 3H was measured with a liquid scintillation counter (TRI-CARB 2700 TR, Packard). […] CETP activity (%)=(Blank dpm−Sample dpm)×100/(Blank dpm) (Equation 2) In the equation, the terms have the following meanings: Blank dpm: Value of 3H radioactivity of sample not added with plasma Sample dpm: Value of ^3H radioactivity of sample added with compound or control sample.

Row | SMILES | Average CETP activity ± standard deviation (%)
13 | CCN(CC1CCCC1)c1nc2ccccc2cc1CN(Cc1cc(C(F)(F)F)cc(C(F)(F)F)c1)c1ncccn1 [Comparative Compound 1, reference compound] | 30.3 ± 4.2%
14 | CCN(CC1CCCC1)c1nc2c(cc1CN(c1ncc(OCCS(C)(=O)=O)cn1)C(C)c1cc(C(F)(F)F)cc(C(F)(F)F)c1)c(C)nn2C (centres unmarked) [Example 5, 5-[({1-[3,5-bis(trifluoromethyl)phenyl]ethyl}{5-[2-(methylsulfonyl)ethoxy]pyrimidin-2-yl}amino)methyl]-N-(cyclopentylmethyl)-N-ethyl-1,3-dimethyl-1H-pyrazolo[3,4-b]pyridin-6-amine] | 3.7 ± 3.2%
